Like-named read-outs stand apart in the source and are kept apart here.
Target: T1, human KISS-receptor (Homo sapiens, UniProt Q969F8)
T1 construct: expressed in transfected cells; host or cells: CHO-k1 cells that also express mitochondrially targeted aequorin, Gα16 and an NFAT-luciferase reporter
Assay: NFAT-regulated luciferase reporter gene assay in CHO-k1 cells, agonist activity
Assay type: cell-based

[1] = pEC50 serum, presence of 20% human serum
[2] = absence of human serum, read-out: pEC50 (converted)
[3] = presence of 20% human serum, read-out: pEC50 serum (converted)

T1 sequence (Q969F8 whole entry): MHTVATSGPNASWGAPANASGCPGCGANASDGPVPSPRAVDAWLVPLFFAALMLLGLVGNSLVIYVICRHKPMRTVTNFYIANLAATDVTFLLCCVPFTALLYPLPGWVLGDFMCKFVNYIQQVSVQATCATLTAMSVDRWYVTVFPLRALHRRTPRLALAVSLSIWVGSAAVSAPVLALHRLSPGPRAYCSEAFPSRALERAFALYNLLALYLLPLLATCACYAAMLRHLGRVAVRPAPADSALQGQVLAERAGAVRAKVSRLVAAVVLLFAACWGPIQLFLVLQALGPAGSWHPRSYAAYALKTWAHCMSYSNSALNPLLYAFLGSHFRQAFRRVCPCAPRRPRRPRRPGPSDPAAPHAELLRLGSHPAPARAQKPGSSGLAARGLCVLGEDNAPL
Experimental: CHO-k1 cells were used that expressed the mitochondrially targeted aequorine and Gα16 (from Euroscreen, Brussels, Belgium), a Nuclear Factor of Activated T-cells-responsive element (NFAT) under the control of a promoter directing the expression of a firefly luciferase reporter gene (pNFAT-TALuc obtained from Clontech, Mountain View, Calif.), and the human GPR54-R Hygro(+)-hGPR54WT c4; MSD). These cells were cultured in Dulbecco's Modified Eagle Medium: Nutrient Mixture F-12 (DMEM/F12) (Invitrogen, Carlsbad, Calif.), supplemented with 10% (vol/vol) filtered bovine serum (Hyclone, Thermo Fisher Scientific, Waltham, Mass.), 100 U/ml penicillin G, 100 μg/ml streptomycin, 400 μg/ml Geneticin and 400 μg/ml Hygromycin (Invitrogen). […] Kisspeptin-10 was used as a standard. […] When the conjugates were tested in the presence of a final percentage of 20% human serum, 10 μl assay medium containing 60% human serum (Sigma-Aldrich, #H4522) was added to the wells. In the absence of human serum, 10 μl of assay medium was added. Cells were harvested and diluted to a concentration of 7.5E5 cells/ml in assay medium without 0.1% BSA. 10 μl of cell solution was added to the compound wells. After incubation for 4 hours in a humidified atmosphere at 5% CO2 and 37° C., the plate was left at room temperature for 30 minutes. Subsequently, 15 μl of Steadylite™ solution (PerkinElmer, Boston, Mass.) was added and the cells, protected from light, were allowed to lyse for 30 min at room temperature. Luminescence, indicated as relative luminescence units (RLU), was measured on an Envision Multilabel reader (PerkinElmer).

Structure (SMILES) | EC50 [2] [nM] | EC50 [3] [nM] | EC50 (pEC50, absence of human serum) [nM] | EC50 [1] [nM]
CNC(=N)NCCC[C@H](NC(=O)[C@H](CC(C)C)NC(=O)NNC(=O)[C@H](Cc1ccccc1)NC(=O)[C@@H](NC(=O)[C@H](CC(N)=O)NC(=O)[C@H](Cc1c[nH]c2ccccc12)NC(=O)[C@H](CC(N)=O)NC(=O)[C@@H](Cc1ccc(O)cc1)NC(=O)CSCCC(=O)NCCOCCOCCOCCO[C@H]1[C@H](OC)[C@@H](OC)[C@@H](O[C@H]2[C@H](OC)[C@@H](OC)[C@H](O[C@H]3[C@H](OS(=O)(=O)O)[C@@H](OS(=O)(=O)O)[C@@H](O[C@H]4[C@H](OC)[C@@H](OC)[C@H](O[C@H]5[C@H](OS(=O)(=O)O)[C@@H](OS(=O)(=O)O)[C@@H](OC)O[C@@H]5COS(=O)(=O)O)O[C@H]4C(=O)O)O[C@@H]3COS(=O)(=O)O)O[C@@H]2C(=O)O)O[C@@H]1COS(=O)(=O)O)[C@@H](C)O)C(=O)N[C@@H](Cc1ccccc1)C(N)=O [Conjugate C2] | – | – | 0.0776 | 9.12
CNC(=N)NCCC[C@H](NC(=O)[C@H](CC(C)C)NC(=O)NNC(=O)[C@H](Cc1ccccc1)NC(=O)[C@@H](NC(=O)[C@H](CC(N)=O)NC(=O)[C@H](Cc1c[nH]c2ccccc12)NC(=O)[C@H](CC(N)=O)NC(=O)[C@@H](Cc1ccc(O)cc1)NC(=O)CCCCn1cc(CCC(=O)NCCOCCOCCOCCOCC(=O)NCCOCCOCCOCCO[C@H]2[C@H](OC)[C@@H](OC)[C@@H](O[C@H]3[C@H](OC)[C@@H](OC)[C@H](O[C@H]4[C@H](OS(=O)(=O)O)[C@@H](OS(=O)(=O)O)[C@@H](O[C@H]5[C@H](OC)[C@@H](OC)[C@H](O[C@H]6[C@H](OS(=O)(=O)O)[C@@H](OS(=O)(=O)O)[C@@H](OC)O[C@@H]6COS(=O)(=O)O)O[C@H]5C(=O)O)O[C@@H]4COS(=O)(=O)O)O[C@@H]3C(=O)O)O[C@@H]2COS(=O)(=O)O)nn1)[C@@H](C)O)C(=O)N[C@@H](Cc1ccccc1)C(N)=O [Conjugate C6] | – | – | 0.148 | 5.62
CNC(=N)NCCC[C@H](NC(=O)[C@H](CC(C)C)NC(=O)CNC(=O)[C@H](Cc1ccccc1)NC(=O)[C@@H](NC(=O)[C@H](CC(N)=O)NC(=O)[C@H](CCCCNC(=O)CCOCCOCCOCCOCCn1cc(CCC(=O)NCCOCCOCCOCCO[C@H]2[C@H](OC)[C@@H](OC)[C@@H](O[C@H]3[C@H](OC)[C@@H](OC)[C@H](O[C@H]4[C@H](OS(=O)(=O)O)[C@@H](OS(=O)(=O)O)[C@@H](O[C@H]5[C@H](OC)[C@@H](OC)[C@H](O[C@H]6[C@H](OS(=O)(=O)O)[C@@H](OS(=O)(=O)O)[C@@H](OC)O[C@@H]6COS(=O)(=O)O)O[C@H]5C(=O)O)O[C@@H]4COS(=O)(=O)O)O[C@@H]3C(=O)O)O[C@@H]2COS(=O)(=O)O)nn1)NC(=O)[C@H](CC(N)=O)NC(=O)[C@@H](N)Cc1ccc(O)cc1)[C@@H](C)O)C(=O)N[C@@H](Cc1ccccc1)C(N)=O [Conjugate C28] | – | – | 0.141 | 4.27
CNC(=N)NCCC[C@H](NC(=O)[C@H](CC(C)C)NC(=O)CNC(=O)[C@H](Cc1ccccc1)NC(=O)[C@@H](NC(=O)[C@H](CC(N)=O)NC(=O)[C@H](Cc1ccccc1)NC(=O)[C@H](CC(N)=O)NC(=O)[C@H](Cc1ccc(O)cc1)NC(=O)CCCCn1cc(CCC(=O)NCCOCCOCCOCCO[C@H]2[C@H](OC)[C@@H](OC)[C@@H](O[C@H]3[C@H](OC)[C@@H](OC)[C@H](O[C@H]4[C@H](OS(=O)(=O)O)[C@@H](OS(=O)(=O)O)[C@@H](O[C@H]5[C@H](OC)[C@@H](OC)[C@H](O[C@H]6[C@H](OS(=O)(=O)O)[C@@H](OS(=O)(=O)O)[C@@H](OC)O[C@@H]6COS(=O)(=O)O)O[C@H]5C(=O)O)O[C@@H]4COS(=O)(=O)O)O[C@@H]3C(=O)O)O[C@@H]2COS(=O)(=O)O)nn1)[C@@H](C)O)C(=O)N[C@@H](Cc1ccccc1)C(N)=O [Conjugate C29] | 0.407 | 8.13 | – | –
CNC(=N)NCCC[C@H](NC(=O)[C@H](CC(C)C)NC(=O)NNC(=O)[C@H](Cc1ccccc1)NC(=O)[C@@H](NC(=O)[C@H](CC(N)=O)NC(=O)[C@@H]1C[C@@H](O)CN1C(=O)[C@@H](Cc1ccc(O)cc1)NC(=O)CCCCn1cc(CCC(=O)NCCOCCOCCOCCO[C@H]2[C@H](OC)[C@@H](OC)[C@@H](O[C@H]3[C@H](OC)[C@@H](OC)[C@H](O[C@H]4[C@H](OS(=O)(=O)O)[C@@H](OS(=O)(=O)O)[C@@H](O[C@H]5[C@H](OC)[C@@H](OC)[C@H](O[C@H]6[C@H](OC)[C@@H](OS(=O)(=O)O)[C@@H](OC)O[C@@H]6COS(=O)(=O)O)O[C@H]5C(=O)O)O[C@@H]4COS(=O)(=O)O)O[C@@H]3C(=O)O)O[C@@H]2COS(=O)(=O)O)nn1)[C@@H](C)O)C(=O)N[C@@H](Cc1c[nH]c2ccccc12)C(N)=O [Conjugate C30] | – | – | 0.0479 | 0.195

More lines, main results first:

EC50 [2] [nM] | EC50 [3] [nM] | Structure (SMILES) | EC50 (pEC50, absence of human serum) [nM] | EC50 [1] [nM]
0.0776 | 6.31 | CNC(=N)NCCC[C@H](NC(=O)[C@H](CC(C)C)NC(=O)NNC(=O)[C@H](Cc1ccccc1)NC(=O)[C@@H](NC(=O)[C@H](CC(N)=O)NC(=O)[C@H](Cc1c[nH]c2ccccc12)NC(=O)[C@H](CC(N)=O)NC(=O)[C@@H](Cc1ccc(O)cc1)Nc1c(NCCOCCOCCOCCOCC(=O)NCCOCCOCCOCCO[C@H]2[C@H](OC)[C@@H](OC)[C@@H](O[C@H]3[C@H](OC)[C@@H](OC)[C@H](O[C@H]4[C@H](OS(=O)(=O)O)[C@@H](OS(=O)(=O)O)[C@@H](O[C@H]5[C@H](OC)[C@@H](OC)[C@H](O[C@H]6[C@H](OS(=O)(=O)O)[C@@H](OS(=O)(=O)O)[C@@H](OC)O[C@@H]6COS(=O)(=O)O)O[C@H]5C(=O)O)O[C@@H]4COS(=O)(=O)O)O[C@@H]3C(=O)O)O[C@@H]2COS(=O)(=O)O)c(=O)c1=O)[C@@H](C)O)C(=O)N[C@@H](Cc1ccccc1)C(N)=O [Conjugate C3] | – | –
0.209 | 2.45 | CNC(=N)NCCC[C@H](NC(=O)[C@H](CC(C)C)NC(=O)NNC(=O)[C@H](Cc1ccccc1)NC(=O)[C@@H](NC(=O)[C@H](CC(N)=O)NC(=O)[C@H](Cc1c[nH]c2ccccc12)NC(=O)[C@H](CC(N)=O)NC(=O)[C@H](Cc1ccc(O)cc1)NC(=O)COCCOCCOCCOCCn1cc(CCC(=O)NCCOCCOCCOCCO[C@H]2[C@H](OC)[C@@H](OC)[C@@H](O[C@H]3[C@H](OC)[C@@H](OC)[C@H](O[C@H]4[C@H](OS(=O)(=O)O)[C@@H](OS(=O)(=O)O)[C@@H](O[C@H]5[C@H](OC)[C@@H](OC)[C@H](O[C@H]6[C@H](OS(=O)(=O)O)[C@@H](OS(=O)(=O)O)[C@@H](OC)O[C@@H]6COS(=O)(=O)O)O[C@H]5C(=O)O)O[C@@H]4COS(=O)(=O)O)O[C@@H]3C(=O)O)O[C@@H]2COS(=O)(=O)O)nn1)[C@@H](C)O)C(=O)N[C@@H](Cc1ccccc1)C(N)=O [Conjugate C23] | – | –
0.151 | 0.355 | CNC(=N)NCCC[C@H](NC(=O)[C@H](CC(C)C)NC(=O)NNC(=O)[C@H](Cc1ccccc1)NC(=O)[C@@H](NC(=O)[C@H](CC(N)=O)NC(=O)[C@@H]1C[C@@H](O)CN1C(=O)[C@@H](Cc1ccc(O)cc1)NC(=O)CCOCCOCCOCCOCCn1cc(CCC(=O)NCCOCCOCCOCCOCC(=O)NCCOCCOCCOCCO[C@H]2[C@H](OC)[C@@H](OC)[C@@H](O[C@H]3[C@H](OC)[C@@H](OC)[C@H](O[C@H]4[C@H](OS(=O)(=O)O)[C@@H](OS(=O)(=O)O)[C@@H](O[C@H]5[C@H](OC)[C@@H](OC)[C@H](O[C@H]6[C@H](OC)[C@@H](OS(=O)(=O)O)[C@@H](OC)O[C@@H]6COS(=O)(=O)O)O[C@H]5C(=O)O)O[C@@H]4COS(=O)(=O)O)O[C@@H]3C(=O)O)O[C@@H]2COS(=O)(=O)O)nn1)[C@@H](C)O)C(=O)N[C@@H](Cc1c[nH]c2ccccc12)C(N)=O [Conjugate C32] | – | –
0.0589 | 0.912 | CNC(=N)NCCC[C@H](NC(=O)[C@H](CC(C)C)NC(=O)NNC(=O)[C@H](Cc1ccccc1)NC(=O)[C@@H](NC(=O)[C@H](CC(N)=O)NC(=O)[C@@H]1C[C@@H](O)CN1C(=O)[C@@H](Cc1ccc(O)cc1)NC(=O)CCOCCOCCOCCOCCn1cc(CCC(=O)NCCOCCOCCOCCOCC(=O)NCCOCCOCCOCCO[C@H]2[C@H](OC)[C@@H](OC)[C@@H](O[C@H]3[C@H](OC)[C@@H](OC)[C@H](O[C@H]4[C@H](OS(=O)(=O)O)[C@@H](OS(=O)(=O)O)[C@@H](O[C@H]5[C@H](OC)[C@@H](OC)[C@H](O[C@H]6[C@H](OS(=O)(=O)O)[C@@H](OS(=O)(=O)O)[C@@H](OC)O[C@@H]6COS(=O)(=O)O)O[C@H]5C(=O)O)O[C@@H]4COS(=O)(=O)O)O[C@@H]3C(=O)O)O[C@@H]2COS(=O)(=O)O)nn1)[C@@H](C)O)C(=O)N[C@@H](Cc1c[nH]c2ccccc12)C(N)=O [Conjugate C33] | – | –
0.0126 | 0.0912 | CO[C@H]1O[C@H](COS(=O)(=O)O)[C@@H](O[C@@H]2O[C@@H](C(=O)O)[C@@H](O[C@H]3O[C@H](COS(=O)(=O)O)[C@@H](O[C@@H]4O[C@H](C(=O)O)[C@@H](O[C@H]5O[C@H](COS(=O)(=O)O)[C@@H](OCCOCCOCCOCCNC(=O)CCc6cn(CCCCC(=O)N[C@H](Cc7ccc(O)cc7)C(=O)N7C[C@H](O)C[C@H]7C(=O)N[C@@H](CC(N)=O)C(=O)N[C@H](C(=O)N[C@@H](Cc7ccccc7)C(=O)NNC(=O)N[C@@H](CC(C)C)C(=O)N[C@@H](CCCNC(=N)N)C(=O)N[C@@H](Cc7c[nH]c8ccccc78)C(N)=O)[C@@H](C)O)nn6)[C@H](OC)[C@H]5OC)[C@H](OC)[C@H]4OC)[C@H](OS(=O)(=O)O)[C@H]3OS(=O)(=O)O)[C@H](OC)[C@H]2OC)[C@H](OC)[C@H]1OS(=O)(=O)O [Conjugate C36] | – | –
0.0126 | 1.15 | CO[C@H]1O[C@H](COS(=O)(=O)O)[C@@H](O[C@@H]2O[C@@H](C(=O)O)[C@@H](O[C@H]3O[C@H](COS(=O)(=O)O)[C@@H](O[C@@H]4O[C@H](C(=O)O)[C@@H](O[C@H]5O[C@H](COS(=O)(=O)O)[C@@H](OCCOCCOCCOCCNC(=O)CCc6cn(CCCCC(=O)N[C@H](Cc7ccc(O)cc7)C(=O)N7C[C@H](O)C[C@H]7C(=O)N[C@@H](CC(N)=O)C(=O)N[C@H](C(=O)N[C@@H](Cc7ccccc7)C(=O)NNC(=O)N[C@@H](CC(C)C)C(=O)N[C@@H](CCCNC(=N)N)C(=O)N[C@@H](Cc7c[nH]c8ccccc78)C(N)=O)[C@@H](C)O)nn6)[C@H](OC)[C@H]5OC)[C@H](OC)[C@H]4OC)[C@H](OS(=O)(=O)O)[C@H]3OS(=O)(=O)O)[C@H](OC)[C@H]2OC)[C@H](OS(=O)(=O)O)[C@H]1OS(=O)(=O)O [Conjugate C37] | – | –

— US9127038B2, “Kisspeptide-pentasaccharide conjugates” (Merck Sharp & Dohme Corp., priority 2011, dated 2015)
